Measured values as given in patent publication US20240294542A1, “NLRP3 INFLAMMASOME INHIBITOR AND APPLICATION THEREOF” (TransThera Sciences (Nanjing), Inc., priority 2021, published 2024).

Test system: NLRP3 inflammasomes
Test: Inhibitory activity against NLRP3 inflammasome in THP-1 cells (LPS/nigericin stimulation, IL-1β ELISA)
Assay type: cell-based
Settings: PMA-differentiated THP-1 cells; LPS 500 ng/mL 3 h, compound 1 h, nigericin 10 μg/mL 30 min; human IL-1β in supernatant by Elisa; read-out: IC50 (nM), inhibitory activities against NLRP3 in THP-1 cells
Method: Test Samples: The compounds of the present invention prepared according to exemplary methods.
THP-1 is Immortalized Human Macrophage Cell Line
• Test instrument: microplate reader (made from PE)
• 1. […] Culture plate coating: 100 μL polylysine solution was added into a 96-well cell culture plate, and the reaction was carried out at 37° C. for 30 min. The solution was discarded, and PBS was washed twice for later use. • 3. […] The resulting mixture was uniformly mixed, and finally diluted by 1:1000 times, and the cells were placed in a carbon dioxide cell incubator at 37° C. and cultured for 1 h. • c. Nigericin was added to each well at a final concentration of 10 μg/mL, and the plate was placed in a carbon dioxide cell incubator at 37° C. and cultured for 30 min. • d. The media in wells were transferred to a new culture plate, and then the plate was centrifuged at 3000 rpm for 5 min. Then the supernatant was transferred to a new 96-well plate. • e. The collected cell culture supernatant samples were tested for the content of human IL-1β by using a commercial Elisa kit, as specified in the instructions.

Cc1ccc(-c2nnc(N[C@@H]3CCCN(C)C3)c3cc(C#N)ccc23)c(O)c1 [Compound 20, (R)-1-(2-hydroxy-4-methylphenyl)-4-((1-methylpiperidin-3-yl)amino)phthalazine-6-carbonitrile] gave an IC50 of 12 nM.

Work on CN1CCC[C@@H](Nc2nnc(-c3ccc(C(F)F)cc3O)c3ccccc23)C1 [Compound 87, (R)-5-(difluoromethyl)-2-(4-((1-methylpiperidin-3-yl)amino)phthalazin-1-yl)phenol] yielded an IC50 of 2 nM.

N#Cc1ccc(-c2nnc(N[C@@H]3CCCN(CCO)C3)c3ccccc23)c(O)c1 [Compound 127, (R)-3-hydroxy-4-(4-((1-(2-hydroxyethyl)piperidin-3-yl)amino)phthalazin-1-yl)benzonitrile] gave an IC50 of 4 nM.

Cc1ccc(-c2nnc(N[C@@H]3CCCN(C)C3)c3ccsc23)c(O)c1 [Compound 48, (R)-5-methyl-2-(4-((1-methylpiperidin-3-yl)amino)thieno[2,3-d]pyridazin-7-yl)phenol] showed an IC50 of 2 nM.

Cc1ccc(-c2nnc(N[C@@H]3CCCN(C)C3)c3c2CCC3)c(O)c1 [Compound 3a, (R)-5-methyl-2-(4-((1-methylpiperidin-3-yl)amino)-6,7-dihydro-5H-cyclopenta[d]pyridazin-1-yl)phenol] showed an IC50 of 4 nM.

C[C@]1(O)C[C@@H](Nc2nnc(-c3ccc(C(F)(F)F)cc3O)c3ccccc23)C1 [Compound 129, 2-(4-(((cis)-3-hydroxy-3-methylcyclobutyl)amino)phthalazin-1-yl)-5-(trifluoromethyl)phenol] gave an IC50 of 4 nM.

CN1CCC[C@@H](Nc2nnc(-c3ccc(C#N)cc3O)c3ccccc23)C1 [Compound 42, (R)-3-hydroxy-4-(4-((1-methylpiperidin-3-yl)amino)phthalazin-1-yl)benzonitrile] was tested, and the IC50 was 13 nM.

COc1ccc(-c2nnc(N[C@@H]3CCCN(C)C3)c3c2CCCC3)c(O)c1 [Compound 23a, (R)-5-methoxy-2-(4-((1-methylpiperidin-3-yl)amino)-5,6,7,8-tetrahydrophthalazin-1-yl)phenol] showed an IC50 of 6 nM.

Cc1ccc(-c2nnc(N[C@@H]3CCCN(C)C3)c3cc(Cl)ccc23)c(O)c1 [Compound 12, (R)-2-(6-chloro-4-((1-methylpiperidin-3-yl)amino)phthalazin-1-yl)-5-methylphenol] gave an IC50 of 4 nM.

Compound CC(C)(O)CN1CCC[C@@H](Nc2nnc(-c3ccc(C#N)cc3O)c3ccccc23)C1 [Compound 126] has an IC50 of 5 nM.

CN1C[C@H](F)C[C@@H](Nc2nnc(-c3ccc(C#N)cc3O)c3ccccc23)C1 [Compound 123, 4-(4-(((3R,5R)-5-fluoro-1-methylpiperidin-3-yl)amino)phthalazin-1-yl)-3-hydroxybenzonitrile] showed an IC50 of 6 nM.

CN1CCC[C@@H](Nc2nnc(-c3ccc(C#N)cc3O)c3ccncc23)C1 [Compound 79, (R)-3-hydroxy-4-(4-((1-methylpiperidin-3-yl)amino)pyrido[3,4-d]pyridazin-1-yl)benzonitrile] showed an IC50 of 13 nM.

With C[C@]1(O)C[C@@H](Nc2nnc(-c3ccc(C#N)cc3O)c3ccccc23)C1 [Compound 116, 3-hydroxy-4-(4-(((cis)-3-hydroxy-3-methylcyclobutyl)amino)phthalazin-1-yl)benzonitrile] the IC50 was 21 nM.

For N#Cc1ccc(-c2nnc(N[C@@H]3CCCN(C4CC4)C3)c3c2CCCC3)c(O)c1 [Compound 21a, (R)-4-(4-((1-cyclopropylpiperidin-3-yl)amino)-5,6,7,8-tetrahydrophthalazin-1-yl)-3-hydroxybenzonitrile], the IC50 was 14 nM.

Compound CN1CCC[C@@H](Nc2nnc(-c3ccc(C4CC4)cc3O)c3ccc(C#N)cc23)C1 [Compound 89, (R)-1-(4-cyclopropyl-2-hydroxyphenyl)-4-((1-methylpiperidin-3-yl)amino)phthalazine-6-carbonitrile] has an IC50 of 7 nM.

Compound N#Cc1ccc(-c2nnc(N[C@@H]3CCCN(C4CC4)C3)c3ccccc23)c(O)c1 [Compound 111, (R)-4-(4-((1-cyclopropylpiperidin-3-yl)amino)phthalazin-1-yl)-3-hydroxybenzonitrile] has an IC50 of 4 nM.

With Cc1ccc2c(-c3ccc(C4CC4)cc3O)nnc(N[C@@H]3CCCN(C)C3)c2c1 [Compound 90, (R)-5-cyclopropyl-2-(6-methyl-4-((1-methylpiperidin-3-yl)amino)phthalazin-1-yl)phenol] the IC50 was 7 nM.

Work on Cc1ccc(-c2nnc(N[C@@H]3CCCN(C)C3)c3c2CCCC3)c(O)c1 [Compound 1a, (R)-5-methyl-2-(4-((1-methylpiperidin-3-yl)amino)-5,6,7,8-tetrahydrophthalazin-1-yl)phenol] yielded an IC50 of 7 nM.

Cc1ccc(-c2nnc(N[C@@H]3CCCN(C)C3)c3cccc(F)c23)c(O)c1 [Compound 6, (R)-2-(8-fluoro-4-((1-methylpiperidin-3-yl)amino)phthalazin-1-yl)-5-methylphenol] gave an IC50 of 11 nM.

Work on Cc1ccc(-c2nnc(N[C@@H]3CCCN(C)C3)c3cnccc23)c(O)c1 [Compound 50, (R)-5-methyl-2-(4-((1-methylpiperidin-3-yl)amino)pyrido[3,4-d]pyridazin-1-yl)phenol] yielded an IC50 of 1 nM.
